From patent US20070081967A1, “Revitalizing hair follicles with total parenteral nutrition or hyperalimentation for maximum hair growth” (priority 2005, published 2007)
Entries after “also recorded” stand apart in the source; their conditions may differ.

Columns and labels:
alopecia = conditions: cited from earlier work
[1] = Solubility of ingredients in solvents during preparation; conditions: qualitative
Method: 3 grams of azelaic acid was ground up into a powder from “hairs” of this dicarboxylic acid. […] Next, 50 mg of vinpocetine is added to the mortar and also ground to a powder. The use of 10 mg tablets of vinpocetine can be used if the raw material in not available. […] At this point 26 cc (or ml) of isopropyl alcohol is added to the mortar and mixed to form the first suspension. […] These two powders are soluble in water which 5 ml of sterile water is added and stirred. At the point the two products can be combines with the final addition of 12 ml of propylene glycol. […] The final volume of 60 ml can be achieved by the “qs” or “adding up to” the 60 ml mark with sterile water.

solubility in isopropyl alcohol [1]	Structure (SMILES)	time to loss of new hair after treatment is stopped (alopecia; after finasteride treatment is stopped) [year]	time to occurrence of hair growth (alopecia; balding men, after start of use)	success rate for treating alopecia (alopecia; reported success rate) [%]	solubility in organic solvents ([1]; solvents named in value)
–	CC(C)(C)NC(=O)[C@H]1CC[C@H]2[C@@H]3CC[C@H]4NC(=O)C=C[C@]4(C)[C@H]3CC[C@]12C [Finasteride]	≤ 1	about 3 months	40	–
slightly soluable	CCOC(=O)C1=C[C@]2(CC)CCCN3CCc4c(n1c1ccccc41)[C@@H]32 [Vinpocetine, 14-ethoxycarbonyl-3 alpha, 16 alpha-ethyl-14, 15-ebumamine]	–	–	–	only soluable in DMSO, 100% ethanol or acetone; also recorded: only soluble in DMSO, 100% ethanol or acetone
